Values joined by “and” are separate entries in the source; they are usually repeats but may differ in a detail not shown here. Equal entries are not always repeated.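 The compound was tested at five concentrations on cells cultured in 96-well plates, with a 48-hour exposure period. Here, GI50 denotes the concentration required for 50% inhibition of growth. TGI: concentration producing complete growth inhibition.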
Assays:
Test in all cases: growth of human tumour cells (NCI), 48 h
OVCAR-3 ovarian = tested on: OVCAR-3 ovarian
M14 melanoma = tested on: M14 melanoma
UO-31 renal = tested on: UO-31 renal
SK-MEL-28 melanoma = tested on: SK-MEL-28 melanoma
ACHN renal = tested on: ACHN renal
UACC-62 melanoma = tested on: UACC-62 melanoma
HOP-92 NSCLC = tested on: HOP-92 NSCLC
HL-60(TB) leukemia = tested on: HL-60(TB) leukemia
CCRF-CEM leukemia = tested on: CCRF-CEM leukemia
T-47D breast = tested on: T-47D breast

Structure (SMILES) | GI50 (OVCAR-3 ovarian) | TGI (OVCAR-3 ovarian) | GI50 (M14 melanoma) | TGI (M14 melanoma) | GI50 (UO-31 renal) | TGI (UO-31 renal) | GI50 (SK-MEL-28 melanoma) | TGI (SK-MEL-28 melanoma) | GI50 (ACHN renal) | TGI (ACHN renal) | GI50 (UACC-62 melanoma) | TGI (UACC-62 melanoma) | GI50 (HOP-92 NSCLC) | TGI (HOP-92 NSCLC) | GI50 (HL-60(TB) leukemia) | TGI (HL-60(TB) leukemia) | GI50 (CCRF-CEM leukemia) | TGI (CCRF-CEM leukemia) | GI50 (T-47D breast) | TGI (T-47D breast)
Cc1[cH-]c(=O)n(-c2ccccc2)n1.[Au+].[Au].c1ccc([PH+](c2ccccc2)c2ccccc2)cc1.c1ccc([PH+](c2ccccc2)c2ccccc2)cc1 | 16.7 µM | 39.1 µM | 9.12 µM and 9.46 µM | 41.5 µM | 11.6 µM | > 100 µM | 2.52 µM | 14.9 µM | 22.3 µM | 58.6 µM | 3.55 µM and 22.2 µM | > 100 µM | 2.79 µM | 7.77 µM | 15.2 µM | 41.1 µM | 22.8 µM | > 100 µM |  | 
OC(c1cc(C(F)(F)F)nc2c(C(F)(F)F)cccc12)C1CCCCN1 (centres undefined) | 2.19 µM | 4.37 µM | 1.83 µM | 3.41 µM | 2.63 µM | 12.3 µM | 1.84 µM | 3.29 µM | 2.69 µM | 7.05 µM | 1.89 µM | 4.47 µM | 1.01 µM | 3.69 µM | 2.46 µM | 4.6 µM | 3.04 µM | 9.13 µM | 1.76 µM | 4.11 µM
c1ccc(Nc2ncc(-c3ccccc3)o2)cc1 | > 25 µM | > 25 µM | > 25 µM | > 25 µM | 9.95 µM | > 25 µM | > 25 µM | > 25 µM | > 25 µM | > 25 µM | > 25 µM | > 25 µM | > 25 µM | > 25 µM | 24 µM | > 25 µM | > 25 µM | > 25 µM | > 25 µM | > 25 µM
Cc1cc(Nc2ccc(C)c(Cl)c2)n2nc(C(F)(F)F)nc2n1 | 22 µM | 75.9 µM | 28.5 µM | 76.5 µM | 14.1 µM | 33.4 µM | 29.8 µM | > 100 µM | 16.3 µM | 35.9 µM | 19.6 µM | 50.1 µM | 18 µM | 59.4 µM | 22.1 µM | 66.2 µM |  |  | 17.5 µM | 76 µM
C=C1C(=O)O[C@H]2[C@H]1CC/C(CNC(=O)c1cc3ccccc3[nH]1)=C\CC[C@@]1(C)O[C@@H]21 | 0.504 µM | 1.69 µM | 1.12 µM | 2.81 µM | 1.29 µM | 2.9 µM |  |  | 1.26 µM | 3.07 µM |  |  | 1.57 µM | 3.46 µM | 2.01 µM | 5.8 µM | 0.375 µM | 1.76 µM | 1.65 µM | 4.8 µM
CN1C(=O)C(=O)N2c3ccc(Cl)cc3C3(c4ccccc4)N=CC12O3 (centres undefined) |  | 14.8 µM |  | 15 µM |  | 18.1 µM |  | 12.1 µM |  | 17.7 µM |  | 15.3 µM |  | 6.63 µM |  | 6.26 µM |  | 17.5 µM |  | 
O=c1[nH]c(-c2ccccc2)nc2cc(Cl)ccc12 |  | > 100 µM |  | > 100 µM |  | > 100 µM |  | > 100 µM |  | > 100 µM |  | > 100 µM |  |  |  | > 100 µM |  | > 100 µM |  | 
N#CC(C(=O)CCC(=O)Nc1ccc(Cl)c(Cl)c1)c1ccccc1 (centres undefined) |  | > 100 µM |  | > 100 µM |  | > 100 µM |  | > 100 µM |  | > 100 µM |  | > 100 µM |  | > 100 µM |  | > 100 µM |  |  |  | 
CCCOc1nc(N)c2cnn(C3CCCCO3)c2n1 (centres undefined) |  | > 100 µM |  | > 100 µM |  | > 100 µM |  | > 100 µM |  | > 100 µM |  | > 100 µM |  | > 100 µM |  | > 100 µM |  | > 100 µM |  | 
O=C(NC1C=CCC2C(=O)N(c3ccccc3)C(=O)C12)OCc1ccccc1 (centres undefined) |  | > 100 µM |  | > 100 µM |  | > 100 µM |  | > 100 µM |  | > 100 µM |  | > 100 µM |  | > 100 µM |  | > 100 µM |  | > 100 µM |  | 
O=C1C(C(Nc2ccccc2)c2ccccc2)=C([O-])c2ccccc21.O=C1C(C(Nc2ccccc2)c2ccccc2)=C([O-])c2ccccc21.[Cu+2] (centres undefined) |  |  | 18.5 µM | > 100 µM | 32.2 µM | > 100 µM | > 100 µM | > 100 µM | 86.2 µM | > 100 µM | 50.6 µM | > 100 µM | 40.9 µM | > 100 µM | 19.6 µM | > 100 µM |  |  |  | 
CN(C)CC1CCC/C1=N/OC(=O)c1ccccc1 (centres undefined) |  | > 100 µM |  | > 100 µM |  | > 100 µM |  | > 100 µM |  | > 100 µM |  | > 100 µM |  | > 100 µM |  |  |  | > 100 µM |  | 
CC1(C)CC(c2c[nH]c3ccccc23)=CC2=Nc3ccccc3C21O (centres undefined) |  | > 100 µM |  | > 100 µM |  | > 100 µM |  | 77.7 µM |  | > 100 µM |  | > 100 µM |  | 64.3 µM |  | > 100 µM |  | > 100 µM |  | 
O=S1C(=c2ccc(=C3Sc4ccccc4S3)cc2)Sc2ccccc21 (centres undefined) |  | > 100 µM |  | 29 µM |  | 35.2 µM |  | 7 µM |  | 37.6 µM |  | 35.2 µM |  | > 100 µM |  | > 100 µM |  | > 100 µM |  | 
[O-][Cl+3]([O-])([O-])[O-].[O]=[Ru]=[O].c1ccc(-c2ccccn2)nc1.c1ccc(-c2ccccn2)nc1 | > 100 µM | > 100 µM | > 100 µM | > 100 µM | > 100 µM | > 100 µM | 92.1 µM | > 100 µM | > 100 µM | > 100 µM | > 100 µM | > 100 µM | > 100 µM | > 100 µM | > 100 µM | > 100 µM | > 100 µM | > 100 µM |  | 
O=c1c2cccnc2ncn1CCN1CCCCC1 |  | > 100 µM |  | > 100 µM |  | > 100 µM |  | > 100 µM |  | > 100 µM |  | > 100 µM |  | > 100 µM |  |  |  | > 100 µM |  | 
Cc1ccc(NC2=C3CCCCC3OC2=O)cc1 (centres undefined) | 68.7 µM | > 100 µM | > 100 µM | > 100 µM | 27.6 µM | > 100 µM | > 100 µM | > 100 µM | > 100 µM | > 100 µM | 47 µM | > 100 µM |  |  | 55.6 µM | > 100 µM | 21.6 µM | 84.2 µM | 29.3 µM | > 100 µM
